Measurements reported in US10730771B2, “Method for operating reverse-osmosis membrane treatment system” (priority 2015, dated 2020).

Test system: microorganisms adhered on the surfaces of test pieces
Test: Test example I: adhesion of slime (microorganisms, as ATP) to SUS316L test pieces in flow columns
Type: cell-based
Conditions: 13 days; for Amount of microorganisms adhered: 1.7 L/min, no treatment 121
Protocol: A test for confirming the capabilities of a combined-chlorine slime-control agent and a stabilized-bromine slime-control agent to reduce the adhesion of slime to the energy recovery device was conducted.
Water produced by treating wastewater from Kurita Global Technology Center of Kurita Water Industries Ltd. was used as test water.
In the testing apparatus, the test water fed from a pipe 20 is split into pipes 21, 22, and 23 and passed through columns 31, 32, and 33 provided with test pieces 31a, 32a, and 33a (3 cm×5 cm test pieces made of SUS316L) fixed to the respective inner walls. FI1, FI2, and FI3 represent a flow meter. V1, V2, and V3 represent a valve.
The test water was passed into the columns 31 to 33 through the branch pipes 21 to 23 at a flow rate of 1.7 L/min for 13 days. While the test water was passed through the testing apparatus, the chemical-1 was injected into the pipe 22 such that the total chlorine concentration measured by the DPD method produced by HACH was 1.0 mg/L (Test No. 2), and the chemical-2 was injected into the pipe 23 such that the total chlorine concentration measured by the same method as in Test No. 2 was 0.8 mg/L (Test No. 3). No chemical (no treatment) was added to the pipe 21 (Test No. 1).
After the test water had been passed through the testing apparatus for 13 days, the test pieces 31a to 33a were removed, and the microorganisms adhered on the surfaces thereof were sampled. The amount of microorganisms adhered on the surface of each of the test pieces was measured with a “Lumitester C-110” produced by Kikkoman Biochemifa Company. The amount of microorganisms was measured as ATP and expressed in the unit of pg/cm^2.

Row | Compound | adhesion of microorganisms compared with no treatment (1.0 mg/L as total chlorine) | Amount of microorganisms adhered (Test No. 2, 1.0 mg/L as total chlorine) [ATP pg/cm^2] | adhesion of microorganisms compared with no treatment (0.8 mg/L as total chlorine) | Amount of microorganisms adhered (Test No. 3, 0.8 mg/L as total chlorine) [ATP pg/cm^2]
1 | O=S(=O)([O-])NCl.[Na+] [NHClSO3Na, sodium monochlorosulfamate] | reduced the adhesion of microorganisms | 49 | – | –
2 | bromosulfamate [Chemical-2] | – | – | reduced the adhesion of microorganisms | 72
